According to patent publication US20140377340A1, “HLA-DR BINDING PEPTIDES AND THEIR USES” (priority 2007, published 2014):

Assays:
purified HLA DRB1*0404 = target: T1, purified HLA DRB1*0404 (Homo sapiens, UniProt P01903+P01911, A100R/A169T/F76Y/I96L/K127E/L162R/M171V/N62H/P40V/Q125Y/R42H/S133A/S149N/S66Y/V209L/W38E); experiment: HLA-DR radioligand binding inhibition assay, DRB1*0404; settings: IC50 nM purified HLA DRB1 *0404, purified HLA DRB1*0404
T1 construct: purified from EBV transformed homozygous cell lines or single MHC allele transfected 721.221, C1R, or fibroblast lines; made in house
Summary of the method: (§1)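 First, HLA-DR was purified from lysates on LB3.1 columns. Then 1 μM to 1 nM protein was incubated 2 days with 1-10 nM radiolabeled peptide at pH 4 to 7. Finally, complexes were captured for 3 hours and bound cpm determined.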

purified HLA DRB1*1201 = target: T2, purified HLA DRB1*1201 (Homo sapiens, UniProt P01903+P01911, A100R/A169T/D57E/D86V/F55L/H45Y/K41T/L162R/M171V/P40S/Q125H/Q178H/Q39Y/Q99D/R42G/S66L/T262R/V114A/V67L/W38E/Y59H/Y61H/Y89S); experiment: HLA-DR radioligand binding inhibition assay, DRB1*1201
T2 construct: purified from EBV transformed homozygous cell lines or single MHC allele transfected 721.221, C1R, or fibroblast lines; made in house
Summary of the method: (§2)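 HLA-DR-bound radioactivity was read by scintillation counting after LB3.1 antibody capture of HLA-DR/peptide complexes. Beforehand, 1-10 nM labeled peptide was incubated 2 days with 1 μM to 1 nM purified HLA-DR (room temperature or 37° C, pH 4-7, protease inhibitor cocktail) and competitor peptides at […], in 2-4 independent runs.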

purified HLA DRB1*0701 = target: T3, purified HLA DRB1*0701 (Homo sapiens, UniProt P01903+P01911, A100R/A102G/A103Q/D57E/D86V/E43K/F76Y/K127E/L162R/M171V/P40G/Q125H/Q99D/R33Q/R42Y/R54Q/S133A/S66F/T210M/V115G/Y107V/Y59L/Y89S); experiment: HLA-DR radioligand binding inhibition assay, DRB1*0701; settings: IC50 nM purified HLA DRB1 *0701, purified HLA DRB1*0701
T3 construct: purified from EBV transformed homozygous cell lines or single MHC allele transfected 721.221, C1R, or fibroblast lines; made in house
Summary of the method: as §1

purified HLA DRB3*0101 = target: T4, purified HLA DRB3*0101 (Homo sapiens, UniProt P01903+P79483); experiment: HLA-DR radioligand binding inhibition assay, DRB3*0101; settings: IC50 nM purified HLA DRB3 *0101, purified HLA DRB3*0101
T4 construct: purified from EBV transformed homozygous cell lines or single MHC allele transfected 721.221, C1R, or fibroblast lines; made in house
Summary of the method: as §2

purified HLA DRB1*0405 = target: T5, purified HLA DRB1*0405 (Homo sapiens, UniProt P01903+P01911, A100R/A169T/D86S/F76Y/I96L/K127E/L162R/M171V/N62H/P40V/Q125Y/R42H/S133A/S149N/S66Y/V115G/V209L/W38E); experiment: HLA-DR radioligand binding inhibition assay, DRB1*0405; settings: IC50 nM purified HLA DRB1 *0405, purified HLA DRB1*0405
T5 construct: purified from EBV transformed homozygous cell lines or single MHC allele transfected 721.221, C1R, or fibroblast lines; made in house
Summary of the method: as §1

purified HLA DRB1*0901 = target: T6, purified HLA DRB1*0901 (Homo sapiens, UniProt P01903+P01911, A100R/A103E/D57H/D86V/F55Y/F60I/F76Y/I96F/K127E/L162R/M171V/P40D/Q125H/Q99R/R33Q/R42F/S133A/S66N/T210M/V115G/W38K/Y107V/Y59G/Y89S); experiment: HLA-DR radioligand binding inhibition assay, DRB1*0901; settings: IC50 nM purified HLA DRB1 *0901, purified HLA DRB1*0901
T6 construct: purified from EBV transformed homozygous cell lines or single MHC allele transfected 721.221, C1R, or fibroblast lines; made in house
Protocol: (§3) Instead, wells of an opaque white 96-well Optiplate (Packard) are coated with 3 μg (100 μl@ 30 μg/ml) of HLA-specific antibody (Ab) that “capture” complexes of radiolabeled MHC and unlabeled peptide transferred from the molecular binding assay plate in 100 μl of 0.05% NP40/PBS. After a 3-hour incubation period, the supernatant is decanted and scintillation fluid (Microscint 20) added. Captured complexes are then measured on a microplate scintillation and luminescence counter (TopCount NXTTM; Packard).
(§4) HLA-DR purification. Fifteen distinct HLA-DR molecules were used in quantitative assays to measure the binding of peptides to solubilized HLA-DR molecules. […] Briefly, columns of inactivated Sepharose CL4B and Protein A Sepharose were used as pre-columns. HLA-DR molecules were captured by passage of lysates over LB3.1 monoclonal antibody (anti-HLA-DRA) columns. Antibody columns were washed with 10 mM Tris-HCL, pH8.0 with 1% (v/v) NP-40, followed by PBS containing 0.4% (w/v) n-octylglucoside.
(§5) Briefly, 1-10 nM of radiolabeled peptide was co-incubated for 2 days at either room temperature or 37° C. with 1 μM to 1 nM purified HLA-DR molecules in the presence of a cocktail of protease inhibitors. Assays were performed at various pH conditions, ranging from pH 4 to pH 7. […] After incubation, the percentage of HLA-DR-bound radioactivity is determined by capturing HLA-DR/peptide complexes on Optiplates (Packard Instruments, Meriden, Conn.) coated with the LB3.1 antibody and determining bound counts per minute using the TopCount microscintillation counter (Packard Instruments).

purified HLA DRB4*0101 = target: T7, purified HLA DRB4*0101 (Homo sapiens, UniProt P01903+P13762, G164S); experiment: HLA-DR radioligand binding inhibition assay, DRB4*0101; settings: IC50 nM purified HLA DRB4 *0101, purified HLA DRB4*0101
T7 construct: purified from EBV transformed homozygous cell lines or single MHC allele transfected 721.221, C1R, or fibroblast lines; made in house
Summary of the method: as §1

purified HLA DRB1*1501 = target: T8, purified HLA DRB1*1501 (Homo sapiens, UniProt P01903+P01911); experiment: HLA-DR radioligand binding inhibition assay, DRB1*1501
T8 construct: purified from EBV transformed homozygous cell lines or single MHC allele transfected 721.221, C1R, or fibroblast lines; made in house
Summary of the method: as §1

purified HLA DRB1*0802 = target: T9, purified HLA DRB1*0802 (Homo sapiens, UniProt P01903+P01911, A100R/A103L/A169T/F76Y/H45Y/I96F/K41T/L162R/M171V/P40S/Q125H/Q178H/Q39Y/Q99D/R218S/R42G/S66Y/V115G/W38E); experiment: HLA-DR radioligand binding inhibition assay, DRB1*0802; settings: IC50 nM purified HLA DRB1 *0802, purified HLA DRB1*0802
T9 construct: purified from EBV transformed homozygous cell lines or single MHC allele transfected 721.221, C1R, or fibroblast lines; made in house
Protocol: as §3
as §4, with “n-octylglucoside. […] The pH was reduced to 8.0 and the eluates were concentrated by centrifugation in Centriprep 30 concentrators at 2000 rpm (Amicon, Beverly, Mass.).” for “n-octylglucoside.”
as §5, with “Instruments). […] Competitor peptides are tested in 2-4 complete, independent experiments, at concentrations ranging from […].” for “Instruments).”

- IC50 (purified HLA DRB1*0404): 493 nM
- IC50 (purified HLA DRB1*1201): 19000 nM
- IC50 (purified HLA DRB1*0701): 271 nM
- IC50 (purified HLA DRB3*0101): > 20000 nM
- IC50 (purified HLA DRB1*0405): 5120 nM
- IC50 (purified HLA DRB1*0901): > 20000 nM
- IC50 (purified HLA DRB4*0101): 444 nM
- IC50 (purified HLA DRB1*1501): 690 nM
- IC50 (purified HLA DRB1*0802): > 20000 nM
SMILES: CSCC[C@H](NC(=O)CNC(=O)[C@H](CC(C)C)NC(=O)CNC(=O)[C@H](Cc1ccc(O)cc1)NC(=O)[C@@H](N)CS)C(=O)N[C@@H](CCC(=O)O)C(=O)N[C@@H](Cc1c[nH]cn1)C(=O)N[C@@H](CC(C)C)C(=O)N[C@@H](CCCNC(=N)N)C(=O)N[C@@H](CCC(=O)O)C(=O)N[C@H](C(=O)N[C@@H](CCCNC(=N)N)C(=O)N[C@@H](C)C(=O)N[C@H](C(=O)O)C(C)C)C(C)C [Peptide 9019.0044]
